Here are results for 16 molecules from US10392348B2, “2-oxo-3,4-dihydroquinoline compounds as plant growth regulators” (Syngenta Participations AG, priority 2015, dated 2019).

For the assay, the system named is soybean plants (variety S20-G7). In words: Reduced plant water use in soybean (foliar spray, repeated weighing of pots). Particulars: Glycine max, foliar, Table B1, sprayed at 500 μM, vs negative control. The class given is in vivo. How it is done: Compounds were tested for their effect on reducing plant water use as follows. Each compound was dissolved in a blank emulsifiable concentrate (EC) formulation that was then diluted to the desired concentration with water containing additional surfactant (EXTRAVON 1 g/20 L). The compounds were applied by foliar spray to 12 day old soybean plants (variety S20-G7) grown in controlled environment plant growth chambers. Plant water use during the day was assessed by repeated weighing of the pots in which the plants were grown before and after application of the compounds at the indicated times (expressed in days after application (DAA)). The water use data before application was used to correct any differences in water use arising due to non-treatment effects (e.g. due to differences in plant size). The untransformed water use values were subjected to an analysis of covariance, fitting the effect of treatment and using the baseline water use 1 day before application as a covariate.
The results are expressed compared to negative control treatment (diluted EC formulation without active ingredient but with EXTRAVON 1 g/20 L).
Application of the chemicals (0 DAA) takes place approximately between 08:00 and 09:30 a.m. WU is measured within day time (chamber light is on 06:00 to 20:00) at these timepoints: 0 DAA a.m. (10:30-12:50), 0 DAA p.m. (14:00-19:50), 1 DAA a.m. (7:30-12:50), 1 DAA p.m. (14:00-19:50), 2 DAA a.m. (07:30-12:50) and 2 DAA p.m. (14:00-19:50). The cumulative total WU (0-2.5 DAA) is calculated by summing the WU data mentioned above.

The mark [1] stands for this setting: 0 h, 0 DAA a.m. (10:30-12:50), read-out: % WU 0 DAA AM.
Where [2] appears, read: 24 h, 1 DAA a.m. (7:30-12:50), read-out: % WU 1DAA AM.
Where [3] appears, read: 24 h, 1 DAA p.m. (14:00-19:50), read-out: % WU 1DAA PM.
Where [4] appears, read: 48 h, 2 DAA a.m. (07:30-12:50), read-out: % WU 2 DAA AM.
The mark [5] stands for this setting: 48 h, 2 DAA p.m. (14:00-19:50), read-out: % WU 2 DAA PM.
[6] abbreviates: 60 h, cumulative total WU (0-2.5 DAA), read-out: % WU Total 0 to 2.5 DAA.

Where two headings read alike, the source gives them in different places.

For the molecule `C=CCN1C(=O)CCc2cc(CNS(=O)(=O)c3ccccc3)ccc21` [Compound 5.001, N-[(1-allyl-2-oxo-3,4-dihydroquinolin-6-yl)methyl]benzenesulfonamide], the change in vivo at 500 µM reads like this: under setting [1], -15.1%; under setting [2], -18.7%; under setting [3], -17.4%; under setting [4], -16.5%; under setting [5], -15.6%; under setting [6], -17.1%.
`C=CCN1C(=O)CCc2cc(CNS(=O)(=O)c3ccc(F)cc3F)ccc21` [Compound 5.006, N-[(1-allyl-2-oxo-3,4-dihydroquinolin-6-yl)methyl]-2,4-difluoro-benzenesulfonamide]: the change in vivo at 500 µM is -13.6% under setting [1]; -12.5% under setting [2]; -11.5% under setting [3]; -9.7% under setting [4]; -9.9% under setting [5]; -11.4% under setting [6].
With `CCCn1c(=O)ccc2cc(CNS(=O)(=O)c3ccc(F)cc3F)ccc21` [Compound 7.006, 2,4-difluoro-N-[(2-oxo-1-propyl-6-quinolyl)methyl]benzenesulfonamide], the change in vivo at 500 µM by setting is: under setting [1], -14.6%; under setting [2], -6.7%; under setting [3], -4.2%; under setting [4], -4.2%; under setting [5], 0%; under setting [6], -6.1%.
On to `CCCn1c(=O)ccc2cc(CNS(=O)(=O)c3ccc(F)cc3)ccc21` [Compound 7.009, 4-fluoro-N-[(2-oxo-1-propyl-6-quinolyl)methyl]benzenesulfonamide], for which the change in vivo at 500 µM under setting [1] is -8.1%; the change in vivo at 500 µM under setting [2] was -3.6%; the change in vivo at 500 µM under setting [3] is -3.5%; the change in vivo at 500 µM under setting [4] is -4%; the change in vivo at 500 µM under setting [5] is -1.7%; the change in vivo at 500 µM under setting [6] is -4.1%.
As to `O=C1CCc2cc(CNS(=O)(=O)c3ccccc3)ccc2N1CC1CC1` [Compound 10.001, N-[[1-(cyclopropylmethyl)-2-oxo-3,4-dihydroquinolin-6-yl]methyl]benzenesulfonamide], the change in vivo at 500 µM is -25.2% under setting [1]; -23.8% under setting [2]; -22.7% under setting [3]; -14.9% under setting [4]; -14.7% under setting [5]; -20.8% under setting [6].
Take `O=C1CCc2cc(CNS(=O)(=O)c3ccc(F)cc3F)ccc2N1CC1CC1` [Compound 10.006, N-[[1-(cyclopropylmethyl)-2-oxo-3,4-dihydroquinolin-6-yl]methyl]-2,4-difluoro-benzenesulfonamide]: the change in vivo at 500 µM is -22.4% under setting [1]; -18.5% under setting [2]; -18.2% under setting [3]; -16.9% under setting [4]; -17.8% under setting [5]; -18.6% under setting [6].
As for `O=C1CCc2cc(CNS(=O)(=O)c3ccccc3)ccc2N1CC(F)(F)F` [Compound 11.001, N-[[2-oxo-1-(2,2,2-trifluoroethyl)-3,4-dihydroquinolin-6-yl]methyl]benzenesulfonamide], the change in vivo at 500 µM under setting [1] was -20.8%; the change in vivo at 500 µM under setting [2] is -26.2%; the change in vivo at 500 µM under setting [3] was -27.6%; the change in vivo at 500 µM under setting [4] was -26.9%; the change in vivo at 500 µM under setting [5] was -26.9%; the change in vivo at 500 µM under setting [6] was -26.1%.
Take `O=C1CCc2cc(CNS(=O)(=O)c3ccc(F)cc3F)ccc2N1CC(F)(F)F` [Compound 11.006, 2,4-difluoro-N-[[2-oxo-1-(2,2,2-trifluoroethyl)-3,4-dihydroquinolin-6-yl]methyl]benzenesulfonamide]: the change in vivo at 500 µM by setting is: under setting [1], -13%; under setting [2], -15.3%; under setting [3], -15.7%; under setting [4], -16.4%; under setting [5], -16.5%; under setting [6], -15.8%.
Consider `COCCN1C(=O)CCc2cc(CNS(=O)(=O)c3ccccc3)ccc21` [Compound 13.001, N-[[1-(2-methoxyethyl)-2-oxo-3,4-dihydroquinolin-6-yl]methyl]benzenesulfonamide], for which the change in vivo at 500 µM was -15.1% under setting [1]; -11% under setting [2]; -11% under setting [3]; -8.9% under setting [4]; -9.2% under setting [5]; -11.1% under setting [6].
With `COCCN1C(=O)CCc2cc(CNS(=O)(=O)c3ccc(F)cc3F)ccc21` [Compound 13.006, 2,4-difluoro-N-[[1-(2-methoxyethyl)-2-oxo-3,4-dihydroquinolin-6-yl]methyl]benzenesulfonamide], the change in vivo at 500 µM is, setting by setting: under setting [1], -9.8%; under setting [2], -9.3%; under setting [3], -10.1%; under setting [4], -9.6%; under setting [5], -10.3%; under setting [6], -10.1%.
Consider `CCN1C(=O)CC(C)c2cc(CNS(=O)(=O)c3ccccc3)cc(C)c21` (stereo not drawn) [Compound 16.001, N-[(1-ethyl-4,8-dimethyl-2-oxo-3,4-dihydroquinolin-6-yl)methyl]benzenesulfonamide], for which the change in vivo at 500 µM reads like this: under setting [1], -39%; under setting [2], -49%; under setting [3], -48.1%; under setting [4], -45.7%; under setting [5], -44.5%; under setting [6], -46%.
Regarding `CCCN1C(=O)CCc2cc(CNS(=O)(=O)c3ccccc3)cc(F)c21` [Compound 17.001, N-[(8-fluoro-2-oxo-1-propyl-3,4-dihydroquinolin-6-yl)methyl]benzenesulfonamide], the change in vivo at 500 µM reads like this: under setting [1], -41.6%; under setting [2], -38%; under setting [3], -36.3%; under setting [4], -27.1%; under setting [5], -26.3%; under setting [6], -34.7%.
Consider `CCN1C(=O)CC(C)c2cc(CNS(=O)(=O)c3ccccc3)cc(F)c21` (stereo not drawn) [Compound 22.001, N-[(1-ethyl-8-fluoro-4-methyl-2-oxo-3,4-dihydroquinolin-6-yl)methyl]benzenesulfonamide], for which the change in vivo at 500 µM runs as follows: under setting [1], -46.1%; under setting [2], -55.8%; under setting [3], -53%; under setting [4], -55.1%; under setting [5], -50.1%; under setting [6], -52.1%.
Turning to `CC1CC(=O)N(CC(F)(F)F)c2ccc(CNS(=O)(=O)c3ccccc3)cc21` (stereo not drawn) [Compound 23.001, N-[[4-methyl-2-oxo-1-(2,2,2-trifluoroethyl)-3,4-dihydroquinolin-6-yl]methyl]benzenesulfonamide], the change in vivo at 500 µM runs as follows: under setting [1], -31.3%; under setting [2], -39.7%; under setting [3], -40.8%; under setting [4], -35.9%; under setting [5], -37.3%; under setting [6], -37.7%.
`CC1CC(=O)N(CC2CC2)c2ccc(CNS(=O)(=O)c3ccccc3)cc21` (stereo not drawn) [Compound 24.001, N-[[1-(cyclopropylmethyl)-4-methyl-2-oxo-3,4-dihydroquinolin-6-yl]methyl]benzenesulfonamide]: the change in vivo at 500 µM is, setting by setting: under setting [1], -35.3%; under setting [2], -42.8%; under setting [3], -42.8%; under setting [4], -39.9%; under setting [5], -38.3%; under setting [6], -40.6%.
Consider `C=CCN1C(=O)CC(C)c2cc(CNS(=O)(=O)c3ccccc3)ccc21` (stereo not drawn) [Compound 25.001, N-[(1-allyl-4-methyl-2-oxo-3,4-dihydroquinolin-6-yl)methyl]benzenesulfonamide], for which the change in vivo at 500 µM is -28.2% under setting [1]; -41% under setting [2]; -39.6% under setting [3]; -38.1% under setting [4]; -36.7% under setting [5]; -37.9% under setting [6].
